Data from patent US4313943A, “7-Chloro-2,3-dihydro-5-phenyl-1-propargyl-1H-1,4-benzodiazepine-2-one, and a pharmaceutical composition thereof” (priority 1972, dated 1982).

Key:
[1] = Potentiation of narcosis (hexobarbitone sodium) in the mouse, Winter method; type: in vivo; settings: hexobarbitone sodium 80 mg/kg i.p., control 33.3
Description: The Winter method was used, in which a state of narcosis is induced by the intraperitoneal administration of 80 mg/kg of hexobarbitone sodium, and is assessed by the loss of the righting reflex in the test animal. […] orally to the animals, in doses shown in Table 4, as suspensions in 1% sodium carboxymethyl cellulose solution; and the prolongation of narcosis in the animals thus treated was observed, by comparison with controls which received only the hexobarbitone administration.

[2] = Anti-convulsant activity in the mouse (convulsions induced by 1,5-pentamethylenetetrazole); type: in vivo; settings: 30 min before pentamethylenetetrazole s.c.
Description: The inhibition of convulsions induced by 1,5-pentamethylenetetrazole was tested by the Clen method. The test compounds were administered orally to the mice, in the doses shown in Table 3, in the form of suspensions in 1% sodium carboxymethyl cellulose solution, and 30 minutes later the test animals were injected subcutaneously with […] of 1,5-pentamethylenetetrazole. The number of mice protected from lethal extensorial tonic spasms, per group of 10 test animals, was recorded.

[3] = Acute toxicity in the mouse (oral); settings: in vivo, mouse (male)
Description: The test compounds shown in Table 2 were administered orally to male mice and rats in the form of a suspension in a 1% solution of sodium carboxymethyl cellulose. The LD50 (lethal dose 50%) was calculated by the method of Litchfield and Wilcoxon.

[4] = Myorelaxant activity in the mouse (traction test); type: in vivo
Description: This was determined by the traction test of Joulon Courvoisier, following Boissier and Simon, in which the mouse is suspended by its front paws to a horizontal metal wire, and the animal's capacity to get up with its hind paws is observed. The test compounds were administered orally to the animals, in the doses shown in Table 5, as suspensions in 1% sodium carboxymethyl cellulose solution; and the animals were tested 30 minutes and 180 minutes after administration. The test animals were deemed to be myorelaxant if unable to get up within 5 seconds.

C#CCN1C(=O)CN=C(c2ccccc2)c2cc(Cl)ccc21 [Compound 1, 7-chloro-2,3-dihydro-5-phenyl-1-propargyl-1H-1,4-benzodiazepin-2-one]
Duration of narcosis ([1]; 1.0 mg/kg oral): 70.7 min | Duration of narcosis ([1]; 2.0 mg/kg oral): 111.3 min | No. of Animals Protected ([2]; 0.5 mg/kg oral): 0/10 | No. of Animals Protected ([2]; 1.0 mg/kg oral): 5/10 | No. of Animals Protected ([2]; 2.0 mg/kg oral): 9/10 | LD50 [3]: 1300 mg/kg | Percentage of myorelaxant animals ([4]; 1.5 mg/kg oral, after 30 minutes): 20% | Percentage of myorelaxant animals ([4]; 1.5 mg/kg oral, after 180 minutes): 15% | Percentage of myorelaxant animals ([4]; 3.0 mg/kg oral, after 30 minutes): 60% | Percentage of myorelaxant animals ([4]; 3.0 mg/kg oral, after 180 minutes): 55% | Percentage of myorelaxant animals ([4]; 6.0 mg/kg oral, after 30 minutes): 80% | Percentage of myorelaxant animals ([4]; 6.0 mg/kg oral, after 180 minutes): 70%
